Like-named read-outs stand apart in the source and are kept apart here.
Key:
PP1 = test: Phosphatase activity by [32P] release from phosphorylase-a or phosphohistone (Honkanen method); assay type: biochemical; conditions: 100 μM inhibitor; none = 100
Description: (§1) It has been found in accordance with the present invention that compounds of formula I are capable of inhibiting serine/threonine protein phosphatases. Inhibition of serine/threonine protein phosphatases is defined herein as inhibition of the activity of one or more of PP1, PP2A or PP3 at a concentration of 100 μM or less of the inhibitor compound. In a preferred embodiment, the activity of the phosphatase is inhibited by at least 10%. In more preferred embodiments, the activity of the phophatase is inhibited by at least 25%, or even more preferably, by at least 50%. Inhibition of PP1, PP2A or PP3 can be assessed by methods known to one of ordinary skill in the art. Suitable assays are described, for example by Honkanen et al. (1994) Toxicon 32:339 and Honkanen et al. (1990) J. Biol. Chem. 265: 19401, the disclosures of which are incorporated herein by reference. Briefly, phosphatase activity is determined by quantifying the [^32 p] released from a ^32 p-labeled substrate such as phosphohistone or phosphorylase-a. Decreased [^32 p] release in the presence of the compounds of the present invention relative to control samples provides a measure of the ability of the compounds of the invention to inhibit PP1, PP2A or PP3.
(§2) Phosphatase activity and the inhibitory activity of the compounds of Table 1 were determined by the method of Honkanen et al. (1994) Toxicon 32:339. Briefly, phosphatase activity against phosphorylase-a or phosphohistone was 25 determined by the quantification of liberated [^32 p]. Assays, 80 μl total volume, containing 50 mM Tris-HCl, pH 7.4, 0.5 mM DTT, 1 mM EDTA (assay buffer) and [^32 p]phosphoprotein (1-2 μM PO4), were conducted as described previously (Honkanen et al., 1991 Mol. Pharmac. 40:577). Dephosphorylation reactions were routinely conducted for 5-10 min. using phosphorylase-a as a substrate and for 10-20 min. using phosphohistone. In all assays the dephosphorylation of substrate was kept to less than 10% of the total phosphorylated substrate available, and the reactions were adjusted to ensure that enzyme activity was linear with respect to enzyme concentration and time. [^32 p]Phosphate liberated by the enzymes was extracted as a phosphomolybdate complex and measured according to the methods of Killilea et al. (1978) Arch. Biochem. Biophys. 191:638. Inhibition of protein phosphatase activity by inhibitors was determined by adding the 100 μM of inhibitors to the enzyme mixture 5-10 min. prior to initiating the reaction with the addition of substrate.

PP2A = PP2A (Bos taurus, UniProt P67774); test: as above; assay type: biochemical; conditions: 100 μM inhibitor; none = 100; read-out: PP2A, percent inhibition relative to control (100%)
Chain of PP2A (P67774 whole entry): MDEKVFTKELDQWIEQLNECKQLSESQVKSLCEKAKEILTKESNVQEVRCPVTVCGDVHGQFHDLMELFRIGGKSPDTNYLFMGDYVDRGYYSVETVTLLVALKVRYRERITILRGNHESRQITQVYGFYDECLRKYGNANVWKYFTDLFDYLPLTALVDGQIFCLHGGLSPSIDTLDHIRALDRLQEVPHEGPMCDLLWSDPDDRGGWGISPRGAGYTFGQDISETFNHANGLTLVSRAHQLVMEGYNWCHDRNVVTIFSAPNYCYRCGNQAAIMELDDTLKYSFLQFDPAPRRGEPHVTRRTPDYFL
Description: as §1, §2

PP3 = test: as above; assay type: biochemical; conditions: 100 μM inhibitor; none = 100
Description: as §1, §2

[1] = test system: human MDA-MB-231 breast cancer cells; test: Antiproliferative activity, tetrazolium reduction assay (Lazo method), 72 h; assay type: cell-based; conditions: for IC50: MDA-MB-231, 72 h continuous treatment, read-out: concentration causing 50% growth inhibition
From the text: The ability of the compounds of the present invention to inhibit proliferation can be assessed by methods known to those of ordinary skill in the art. For example, proliferating cells can be contacted with a compound of the invention, and cell numbers determined. A reduction in cell number in treated versus untreated cells provides a measure of the ability of the present compounds to inhibit proliferation. In a preferred embodiment the cells to be treated are cancer cells, for example breast cancer cells such as the CDC25B+ breast cancer cells MDA-MB-231, which are available from the American Type Culture Collection (Accession No. HTB-26). The antiproliferative activity of the present compounds can also be measured by the assay described by Lazo et al. (1995) J. Biol. Chem. 270: 5506, the disclosure of which is incorporated herein by reference. The microtiter-based calorimetric assay is based upon the reduction of 3-[4,5-dimethylthiazol-2-yl]-2,5-diphenyl tetrazolium bromide by living cells, and permits evaluation of the cytostatic or cytotoxic actions of large numbers of compounds quickly in mouse embryonic fibroblasts and human CDC25B+ breast cancer cells. Briefly, exponentially growing CDC25B+ MDA-MB-231 cells are treated continuously with from 0 to 100 μM of a compound of the invention, and cell proliferation is determined calorimetrically after 72 hours by assessing the ability of the cells to reduce 3-[4,5-dimethylthiazol-2-yl]-2,5-diphenyl tetrazolium bromide.
Human MDA-MB-231 breast carcinoma cells were obtained from the American Type Culture Collection at passage 28 and were maintained for no longer than 20 passages. The cells were grown in RPMI-1640 supplemented with 1% penicillin (100 μg/mL) and streptomycin (100 μg/mL), 1% L-glutamate,and 10% fetal bovine serum in a humidified incubator at 37° C. under 5% CO2 in air. Cells were routinely found free of mycoplasma. To remove cells from the monolayer for passage or flow cytometry, cells were washed two times with phosphate buffer and briefly (<3 min) treated with 0.05% trypsin/2 mM EDTA at room temperature. After the addition of at least two volumes of growth medium containing 10W fetal bovine serum, the cells were centrifuged at 1,000×g for 5 min. Compounds were made into stock solutions using DMSO, and stored at -20° C. All compounds and controls were added to obtain a final concentration of 0.1-0.2% (v/v) of the final solution for experiments.
The antiproliferative activity of the compounds was determined by the method of Lazo et al. (1995) J. Biol. Chem. 270:5506. Briefly, cells (6.5×10^3 cells/cm^2) were plated in 96 well flat bottom plates for the cytotoxicity studies and incubated at 37° C. for 48 h. The plating medium was aspirated off 96 well plates and 200 μL of growth medium containing the compound was added per well. Compounds were used at from O to the highest available concentration which ranged from 30 to 100 μM. Plates were incubated for 72 h, and then washed 4× with serum free medium. After washing, 50 μL of 3-[4,5-dimethylthiazol-2-yl]-2,5-diphenyl tetrazolium bromide solution (2 mg/mL) was added to each well, followed by 150 μL of complete growth medium. Plates were then incubated an additional 4 h at 37° C. The solution was aspirated off, 200 μL of DMSO added, and the plates were shaken for 30 min at room temperature. Absorbance at 540 nm was determined with a Titertek Multiskan Plus plate reader. Biologically active compounds were tested at least 3 independent times.

Structure (SMILES): CCCCCCCCCC(=O)NC(CCC(=O)N(CCNC(=O)c1nc(-c2ccccc2)oc1-c1ccccc1)Cc1ccccc1)C(=O)O (stereo not shown) [Compound 1f]
- PP1 remaining activity, percent of control (PP1): 117%
- PP2A remaining activity, % of control at 100 µM (PP2A): 156%
- PP3 remaining activity, percent of control (PP3): 85%
- IC50 ([1]; Homo sapiens, MDA-MB-231, 72 h): 100 µM
- concentration dependence of growth inhibition (in words) ([1]; MDA-MB-231, 72 h): concentration-dependent inhibition in proliferation
- concentration dependence of growth inhibition (in words) ([1]; MDA-MB-231, 72 h, listed as if): clear concentration-dependency
- IC50 [1]: 88 to 100 µM

— patent US5856506A, “Phosphatase inhibitors and methods of use thereof” (University of Pittsburgh, priority 1997, dated 1999)
